This note sets out measurements from patent publication US20230159527A1, “COMPOUNDS AS BCL-2 INHIBITORS” (Fochon Pharmaceuticals, Ltd., priority 2020, published 2023).

One experiment relates to RS4;11-BCL-2 F104L cells. The experiment in a line: Cell proliferation assay, engineered RS4;11 cells stably overexpressing BCL-2 F104L (MTS, 168 h). In kind it is cell-based. To be noted: Homo sapiens, read-out: RS4, 11 BCL2-F104L. As to the method: MTS testing kit was purchased from Promega (Madison, Wis., USA). The RPMI-1640, Fetal bovine serum and Penicillin-Streptomycin were purchased from BI (Biological Industries, Beit Haemek, Israel). Puromycin was purchased from Beyotime (shanghai, China). Dimethyl sulfoxide (DMSO) was purchased from Sigma (St. Louis, Mo., USA). RS4;1l-BCL-2 G101V and RS4;11-BCL-2 F104L cells were cultured in RPM11640 supplemented with 1 ug/mL puromycin, 100 U/mL Penicillin-Streptomycin and 10% FBS.
To investigate whether a compound is able to inhibit the activity of BCL-2 mutation in cells, a mechanism-based assay using engineered cell lines stably overexpressing BCL-2 mutation ([…] and […]) was developed. In this assay, the inhibition of BCL-2 mutation was reflected by the inhibition of cell proliferation of RS4;11-BCL-2 G101V and RS4;11-BCL-2 F104L cells. Cells were plated into 96-well plates at optimized cell density (RS4;11-BCL-2 G101V: 5000 cells/well; RS4;11-BCL-2 F104L: 5000 cells/well). Plates were incubated at 37° C., with 5% CO2 for 4 h. Compounds were serially diluted to the final-concentrations of 10000, 3333.3, 1111.1, 370.4, 123.5, 41.2, 13.7, 4.6 and 1.4 nM and added to the plates. Plates were incubated at 37° C., with 5% CO2 for 168 h. 20 μl MTS was added into each well and the plates were incubated at 37° C., with 5% CO2 exactly for 2 h. The absorbance was measured by a microplate reader at 490 nm. IC50 values were calculated using GraphPad Prism 5.0 software.

A further experiment relates to Toledo cells. In words: Cell proliferation assay, Toledo cells (MTS, 72 h). In kind it is cell-based. The following applies: Homo sapiens, Toledo cells, MTS, read-out: Toledo IC50. Summed up:
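IC50 was derived from 490 nm absorbance after a 2 h MTS step. Before that, compounds at 1.5–10000 nM final (nine points) acted on Toledo cells for 72 h at 37 °C, 5% CO2. Cells were seeded at 30000/well in 10% FBS RPMI-1640 and rested 4 h before dosing.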

For the molecule `CC(C)c1ccccc1[C@@H]1CCC[C@@H]1N1CC2(CCN(c3ccc(C(=O)NS(=O)(=O)c4ccc(NC[C@H]5CC[C@](C)(O)CC5)c([N+](=O)[O-])c4)c(Oc4cc5cc[nH]c5nc4F)c3)CC2)C1` (single isomer, unassigned) [Example D-116, 2-((6-fluoro-1H-pyrrolo[2,3-b]pyridin-5-yl)oxy)-N-((4-((1r,4r)-4-hydroxy-4-methylcyclohexyl)methyl)amino)-3-nitrophenyl) sulfonyl)-4-(2-((1S,2S or 1R,2R)-2-(2-isopropylphenyl) cyclopentyl)-2,7-diazaspiro[3.5] nonan-7-yl)benzamide], the IC50 with RS4;11-BCL-2 F104L cells and in the experiment with Toledo cells was 1 nM throughout.
For the molecule `Cc1nc2[nH]cc(F)c2cc1Oc1cc(N2CCC3(CC2)CN([C@H]2CCC[C@H]2c2ccccc2C(C)C)C3)ccc1C(=O)NS(=O)(=O)c1ccc(NC[C@H]2CC[C@](C)(O)CC2)c([N+](=O)[O-])c1` (single isomer, unassigned) [Example D-234, 2-((3-fluoro-6-methyl-1H-pyrrolo [2,3-b]pyridin-5-yl)oxy)-N-((4-((((1r,4r)-4-hydroxy-4-methylcyclohexyl)methyl)amino)-3-nitrophenyl)sulfonyl)-4-(2-((1S,2S or 1R,2R)-2-(2-isopropylphenyl)cyclopentyl)-2,7-diazaspiro[3.5]nonan-7-yl)benzamide], the IC50 in the experiment with RS4;11-BCL-2 F104L cells is 8 nM; in the experiment on Toledo cells it was 1 nM.
`Cc1nc2[nH]cc(F)c2cc1Oc1cc(N2CCC3(CC2)CN([C@H]2CCC[C@H]2c2ccccc2C(C)C)C3)ccc1C(=O)NS(=O)(=O)c1cc2c(c([N+](=O)[O-])c1)N[C@@H]([C@H]1CC[C@](C)(O)CC1)CO2` (single isomer, unassigned) [Example D-240, 2-((3-fluoro-6-methyl-1H-pyrrolo [2,3-b]pyridin-5-yl)oxy)-N-(((S)-3-((1r,4S)-4-hydroxy-4-methylcyclohexyl)-5-nitro-3,4-dihydro-2H-benzo[b][1,4]oxazin-7-yl)sulfonyl)-4-(2-((1S,2S or 1R,2R)-2-(2-isopropylphenyl)cyclopentyl)-2,7-diazaspiro[3.5]nonan-7-yl)benzamide]: the IC50 is 10 nM in the experiment on RS4;11-BCL-2 F104L cells and 1 nM in the experiment with Toledo cells.
As for `Cc1nc2[nH]cc(F)c2cc1Oc1cc(N2CCC3(CC2)CN([C@H]2CCC[C@H]2c2ccccc2C(C)C)C3)ccc1C(=O)NS(=O)(=O)c1cnc(NC[C@H]2CC[C@](C)(O)CC2)c([N+](=O)[O-])c1` (single isomer, unassigned) [Example A-156, 2-((3-fluoro-6-methyl-1H-pyrrolo[2,3-b]pyridin-5-yl)oxy)-N-((6-((((1r,4r)-4-hydroxy-4-methylcyclohexyl)methyl)amino)-5-nitropyridin-3-yl)sulfonyl)-4-(2-((1S,2S or 1R,2R)-2-(2-isopropylphenyl)cyclo-pentyl)-2,7-diazaspiro[3.5]nonan-7-yl) benzamide], the IC50 turned out to be 16 nM in the experiment on RS4;11-BCL-2 F104L cells and 1 nM in the experiment with Toledo cells.
Take `Cc1nc2[nH]cc(F)c2cc1Oc1cc(N2CCC3(CC2)CC(N2CCC[C@H]2c2ccccc2C(C)C)C3)ccc1C(=O)NS(=O)(=O)c1cc2c(c([N+](=O)[O-])c1)N[C@@H]([C@H]1CC[C@](C)(O)CC1)CO2` (single isomer, unassigned) [Example D-244, 2-((3-fluoro-6-methyl-1H-pyrrolo [2,3-b]pyridin-5-yl)oxy)-N-(((S)-3-((1r,4S)-4-hydroxy-4-methylcyclohexyl)-5-nitro-3,4-dihydro-2H-benzo[b][1,4]oxazin-7-yl)sulfonyl)-4-(2-((R or S)-2-(2-isopropylphenyl)pyrrolidin-1-yl)-7-azaspiro[3.5]nonan-7-yl)benzamide]: the IC50 in the experiment with RS4;11-BCL-2 F104L cells and in the experiment on Toledo cells was 1 nM throughout.
On to `COc1nc2[nH]ccc2cc1Oc1cc(N2CCC3(CC2)CC(N2CCC[C@H]2c2ccccc2C(C)C)C3)ccc1C(=O)NS(=O)(=O)c1cc2c(c([N+](=O)[O-])c1)N[C@@H]([C@H]1CC[C@](C)(O)CC1)CO2` (single isomer, unassigned) [Example D-10, N-(((S)-3-((1r,4S)-4-hydroxy-4-methylcyclohexyl)-5-nitro-3,4-dihydro-2H-benzo[b][1,4]oxazin-7-yl)sulfonyl)-4-(2-((R or S)-2-(2-isopropylphenyl)pyrrolidin-1-yl)-7-azaspiro[3.5]nonan-7-yl)-2-((6-methoxy-1H-pyrrolo [2,3-b]pyridin-5-yl)oxy)benzamide], for which the IC50 was determined as 34 nM in the experiment with RS4;11-BCL-2 F104L cells and 1 nM in the experiment on Toledo cells.
The like results for `COc1nc2[nH]cc(F)c2cc1Oc1cc(N2CCC3(CC2)CN([C@H]2CCC[C@H]2c2ccccc2C(C)C)C3)ccc1C(=O)NS(=O)(=O)c1ccc(NC[C@H]2CC[C@](C)(O)CC2)c([N+](=O)[O-])c1` (single isomer, unassigned) [Example D-109, 2-((3-fluoro-6-methoxy-1H-pyrrolo [2,3-b]pyridin-5-yl)oxy)-N-((4-((((1r,4r)-4-hydroxy-4-methylcyclohexyl)methyl)amino)-3-nitrophenyl)sulfonyl)-4-(2-((1S,2S or 1R,2R)-2-(2-isopropylphenyl)cyclopentyl)-2,7-diazaspiro[3.5]nonan-7-yl)benzamide] were, in that order, 8 nM and 1 nM.
In the same order, the values of `CC(C)c1ccccc1[C@@H]1CCC[C@@H]1N1CC2(CCN(c3ccc(C(=O)NS(=O)(=O)c4cnc(NC[C@H]5CC[C@](C)(O)CC5)c([N+](=O)[O-])c4)c(Oc4cc5cc[nH]c5nc4F)c3)CC2)C1` (single isomer, unassigned) [Example A-158, 2-((6-fluoro-1H-pyrrolo[2,3-b]pyridin-5-yl)oxy)-N-((6-((((1r,4r)-4-hydroxy-4-methylcyclohexyl)methyl)amino)-5-nitropyridin-3-yl)sulfonyl)-4-(2-((1S,2S or 1R,2R)-2-(2-isopropylphenyl)cyclo-pentyl)-2,7-diazaspiro[3.5]nonan-7-yl) benzamide] are 8 nM and 1 nM.
In the same order, the values of `COc1nc2[nH]cc(F)c2cc1Oc1cc(N2CCC3(CC2)CC(N2CCC[C@H]2c2ccccc2C(C)C)C3)ccc1C(=O)NS(=O)(=O)c1cc2c(c([N+](=O)[O-])c1)N[C@@H]([C@H]1CC[C@](C)(O)CC1)CO2` (single isomer, unassigned) [Example D-83, 2-((3-fluoro-6-methoxy-1H-pyrrolo [2,3-b]pyridin-5-yl)oxy)-N-(((S)-3-((1r,4S)-4-hydroxy-4-methylcyclohexyl)-5-nitro-3,4-dihydro-2H-benzo[b][1,4]oxazin-7-yl)sulfonyl)-4-(2-((R or S)-2-(2-isopropylphenyl)pyrrolidin-1-yl)-7-azaspiro[3.5]nonan-7-yl)benzamide] are 8 nM and 1 nM.
As for `CCOc1nc2[nH]cc(F)c2cc1Oc1cc(N2CCC3(CC2)CN([C@H]2CCC[C@H]2c2ccccc2C(C)C)C3)ccc1C(=O)NS(=O)(=O)c1ccc(NC[C@H]2CC[C@](C)(O)CC2)c([N+](=O)[O-])c1` (single isomer, unassigned) [Example D-110, 2-((6-ethoxy-3-fluoro-1H-pyrrolo [2,3-b]pyridin-5-yl)oxy)-N-((4-((((1r,4r)-4-hydroxy-4-methylcyclohexyl)methyl)amino)-3-nitrophenyl)sulfonyl)-4-(2-((1S,2S or 1R,2R)-2-(2-isopropylphenyl)cyclopentyl)-2,7-diazaspiro[3.5]nonan-7-yl)benzamide], the IC50 worked out at 15 nM in the experiment with RS4;11-BCL-2 F104L cells and 1 nM in the experiment with Toledo cells.
Regarding `CC(C)c1ccccc1[C@@H]1CCC[C@@H]1N1CC2(CCN(c3ccc(C(=O)NS(=O)(=O)c4cc5c(c([N+](=O)[O-])c4)N[C@@H]([C@H]4CC[C@](C)(O)CC4)CO5)c(Oc4cc5cc[nH]c5nc4F)c3)CC2)C1` (single isomer, unassigned) [Example D-117, 2-((6-fluoro-1H-pyrrolo[2,3-b]pyridin-5-yl)oxy)-N-(((S)-3-((1r,4S)-4-hydroxy-4-methylcyclohexyl)-5-nitro-3,4-dihydro-2H-benzo[b] [1,4]oxazin-7-yl)sulfonyl)-4-(2-((1S,2S or 1R,2R)-2-(2-isopropylphenyl)cyclopentyl)-2,7-diazaspiro[3.5]nonan-7-yl)benzamide], the IC50 in the experiment with RS4;11-BCL-2 F104L cells and in the experiment on Toledo cells was 1 nM each time.
In the case of `CC(C)c1ccccc1[C@@H]1CCCN1C1CC2(CCN(c3ccc(C(=O)NS(=O)(=O)c4cc5c(c([N+](=O)[O-])c4)N[C@@H]([C@H]4CC[C@](C)(O)CC4)CO5)c(Oc4cc5cc[nH]c5nc4OC[C@H]4COCCO4)c3)CC2)C1` (single isomer, unassigned) [Example D-252, 2-((6-(((R)-1,4-dioxan-2-yl)methoxy)-1H-pyrrolo[2,3-b]pyridin-5-yl)oxy)-N-(((S)-3-((1r,4S)-4-hydroxy-4-methylcyclohexyl)-5-nitro-3,4-dihydro-2H-benzo[b][1,4]oxazin-7-yl)sulfonyl)-4-(2-((R or S)-2-(2-isopropylphenyl)pyrrolidin-1-yl)-7-azaspiro[3.5]nonan-7-yl)benzamide], the IC50 in the experiment on RS4;11-BCL-2 F104L cells and in the experiment on Toledo cells was 1 nM in each case.
